Patent US7105548B2, “Heteroaryl substituted triazole modulators of metabotropic glutamate receptor-5” (Merck & Co., Inc., priority 2001, dated 2006)
Structures can show the parent of a compound that is named as a salt.

SMILES | melting point
Clc1cccc(-n2cnc(-c3ccccn3)n2)c1 (as salt: hydrochloride) [Example 1, 2-[1-(3-chlorophenyl)-1H-1,2,4-triazol-3-yl]pyridine] | 221 to 223 °C
N#Cc1cccc(-n2cnc(-c3ccccn3)n2)c1 [Example 2, 3-(3-pyridin-2-yl-1H-1,2,4-triazol-1-yl)benzonitrile] | 194 to 195 °C
Clc1cccc(-c2ncn(-c3ccccn3)n2)c1 (as salt: hydrochloride) [Example 4, 2-[3-(3-chlorophenyl)-1H-1,2,4-triazol-1-yl]pyridine] | 125 to 128 °C
N#Cc1cccc(-c2ncn(-c3ccccn3)n2)c1 (as salt: hydrochloride) [Example 3, 3-(1-pyridin-2-yl-1H-1,2,4-triazol-3-yl)benzonitrile] | 185 to 188 °C
